# Results: patent US20150011484A1, “PRODRUGS OF D-GAMMA-GLUTAMYL-D-TRYPTOPHAN AND D-GAMMA-GLUTAMYL-L-TRYPTOPHAN” (APOTEX TECHNOLOGIES, INC., priority 2011, published 2015)
# Key:
# [1] = Pharmacokinetic studies in rats (oral bioavailability); format: in vivo, male Sprague-Dawley rats
# Description: Groups of five male Sprague-Dawley rats weighing 250 to 300 g were utilized per dosing group. One day prior to dosing, venous and arterial catheters (made of 20 cm long polyurethane coiled tubing, and filled with 100 units/mL heparinized saline) were implanted into the jugular vein and carotid artery of each rat. Rats were fasted overnight prior to oral dosing and fed approximately 2 hours post-dosing. All dosing and blood sampling was performed on fully conscious rats. Tested compounds were administered either by oral gavage as solutions in water, or by intravenous injection (Apo805K1 only) as solution in 0.9% sodium chloride, final pH 7.0, at doses equivalent to 5 mg/kg (per Apo805 content). Blood (0.3 mL) was sampled from each animal from the carotid artery for up to 30 hours post-dosing, each sampling followed by an equivalent naive-blood replacement. The blood sample was immediately centrifuged (4300×g for 5 minutes at 4° C.), and frozen at −80° C. until LC/MS/MS analysis.
# Metanol (200 μL) was added to plasma samples (50 μL) to precipitate plasma proteins. After brief vortexing and centrifugation, the supernatant (200 uL) was removed and dried at 40° C. under a stream if nitrogen. The sample was reconstituted in water (300 μL) and 25 μL was injected for analysis.
# A Sciex API 365 LC/MS/MS spectrophotometer equipped with Ionics EP10+ and HSID, was used. A chiral column (Supelco-Astec CHIROBIOTIC™ TAG), 100×2.1 mm, 5 μm was used at ambient temperature. The mobile phase consisted of 0.1% formic acid in water (A) and 0.1% formic acid in acetonitrile (B) in a ratio of 88:12(A:B; v/v) and the flow rate was 0.6 mL/min. Positive ion electrospray ionization (ESI+) in MRM mode was used for analysis. Samples were analysed for the concentration of Apo805.
# Absolute oral bioavailability of pro-drugs Apo848, a compound of Formula IA wherein G=T=isoamyl) was compared to that of Apo805K1 (potassium salt of H-D-Glu(D-Trp-OH)—OH) in male Sprague-Dawley rats. Adult animals, five per group, were dosed orally with 5 mg/kg Apo805K1, Apo848, or Apo838 and intravenously with 5 mg/kg Apo805K1.
# Non-compartmental analysis was performed using WinNonlin 5.2 software, on individual animal data. Bioavailability was calculated as a ratio of AUCINF—D after oral dosing of test compound to AUCINF—D after IV dosing of Apo805K1.
# human hepatocytes = experiment: Biotransformation studies in human cryopreserved hepatocytes; format: in vitro ADME; conditions: for Bioconversion to Apo805 in human hepatocytes: in 3 h, 100 μM, cryopreserved human hepatocytes
# Description: LiverPool® cryopreserved human hepatocytes (pooled from 10 male donors) was obtained from Celsis In Vitro Technologies. The hepatocytes were stored in liquid nitrogen until used. Just before the assay, the hepatocytes were quickly thawed at 37° C. and centrifuged at 100×g for 10 min. The media was removed and cells were re-suspended in PBS at a density of 4×10^6 cells/mL.
# The compound of Formula I (100 μM) was incubated with 0.1×10^6 hepatocytes in 50 μL volume. […] The “time 0” sample was generated by adding TCA before the test compound. After brief vortexing and 10-min incubation on ice, samples were centrifuged (16,000×g, 10 min) and the supernatants were analyzed by HPLC with UV detection.
# HPLC analysis of pro-drugs in SGF, SIF, plasma and hepatocytes samples: HPLC analysis was done using an Agilent 1100 series HPLC system consisting of a programmable multi-channel pump, auto-injector, vacuum degasser and HP detector controlled by Agilent HPLC218 Chem Station Rev.A.09.03 software for data acquisition and analysis. A gradient method was used for the determination of all pro-drugs and their hydrolysis products including Apo805 on an Agilent Eclipse XDB, C18 column (part #963967-902, 150×4.6 mm, 3.5 μm) with the following chromatographic conditions: • Temperature: Ambient • Mobile phase: A=Aqueous phase: 10 mM Tris-HCl, 2 mM EDTA, pH 7.4 • B=Organic phase: Acetonitrile • Gradient method: Time: 0 min 5% B, 25 min 50% B, 35 min 80% B, 45 min 5% B, 50 min 5% B. • Mobile phase flow rate: 1.0 mL/min • Injection volume: 50 μL • Data acquisition time: 30 min • Detection wavelength: 280 nm; 4 nm bandwidth, ref. 360 nm, 4 nm bandwidth
# The chromatograms at λ=280 nm were analyzed. Peak area (mAU*s) was used for quantitation of pro-drugs, intermediates and H-D-Glu(D-Trp-OH)—OH (Apo805).
# [2] = Distribution coefficient determination, D7.4 (1-octanol / MOPS buffer pH 7.4); format: physicochemical
# Description: MOPS buffer (50 mM, pH=7.4) and 1-octanol were used as the aqueous phase and the organic phase, respectively. The MOPS buffer and 1-octanol were mixed, and pre-saturated with each other prior to use.
# In a typical experiment, an aqueous solution of Apo848 hydrochloride salt (H-D-Glu(D-Trp-O-isoamyl)-O-isoamy HCl) was prepared by weighing out 2 mg of the compound into a 5-mL volumetric flask, followed by addition of MOPS buffer (50 mM, pH=7.4) to volume. The resulting mixture was sonicated and vortexed to ensure complete dissolution. The resulting solution was analyzed by HPLC (Column: XTerra MS C18, […], 4.6×250 mm; Mobile phase: A=4 mM Tris, 2 mM EDTA, pH 7.4 aqueous, B=acetonitrile; Gradient method: time in minutes—B in %:0-5, 15-55, 25-55, 25.05-5, 30-5; Flow rate: 1 mL/min; Injection volume=2 μL; detector wavelength: 282 nm) to obtain the peak height (Haqu^l).
# One mL of this aqueous solution was pipetted out into another 10-mL test-tube and mixed with 1 mL of 1-octanol. The mixture was vortexed for 1 hour, then centrifuged at 4000 rpm for 15 minutes. The two phases were separated. Both the aqueous phase and the organic phase were analyzed by HPLC to obtain the peak heights, Haqu^F and Horg^F. The distribution coefficient, D7.4, was calculated using one or both the following equations: D7.4=(Haqu^l−Haqu^F)/Haqu^F, or D7.4=Horg^F/Haqu^F.
# [3] = Conversion of prodrug to Apo805 in rat blood; format: in vitro ADME
# [4] = Caco-2 cell permeability evaluation; format: in vitro ADME; conditions: human; caco-2, 50 μM, HBSS pH 7.4, 37° C.; read-out: apparent permeability (Papp)
# Description: Human intestinal absorbtion potential of a compound of Formula I was estimated in caco-2 cells permeability assay.
# Caco-2 cells obtained originally from ATCC were seeded onto 0.9-cm^2 PET filter (Becton Dickinson) at a density of 90000 cells/insert. Culture conditions were maintained for 21-28 days in 20% fetal bovine serum containing eagle's minimum essential medium enriched with non-essential amino acids. Integrity of the cell monolayers was evaluated via measurement of Lucifer Yellow paracellular apparent permeability coefficient (Papp).
# Prior to the addition of a test compound, growth medium was removed and monolayer was rinsed twice with Hank's balanced salt solution (HBSS) at 37° C. The filter inserts containing the cell monolayers were transferred to a separate 12-well cell culture plate containing HBSS or solution of the test compound in the bottom chamber. […] For every experiment, the test compound solution was added to the top (apical-to-basolateral transport, A>B) or bottom (basolateral-to-apical transport, B>A) chamber and its appearance in the opposite chamber over time was monitored. […] Samples were analyzed by LC-MS/MS. In case of prodrugs which undergo partial hydrolysis during the experiment, the samples were analyzed for the concentration of the prodrug and all hydrolysis products. […]
smiles,measurement,setting,value
"N[C@H](CCC(=O)N[C@H](Cc1c[nH]c2ccccc12)C(=O)[O-])C(=O)[O-].[H+].[K+] [Apo805K1, potassium salt of H-D-Glu(D-Trp-OH)—OH, reference compound]",Absolute oral bioavailability (AUC oral / AUC intravenous Apo805K1; Apo805 measured in plasma),"[1]; rats, oral 5 mg/kg",12%
"COC(=O)[C@H](N)CCC(=O)N[C@H](Cc1c[nH]c2ccccc12)C(=O)OC [Apo840, H-D-Glu(D-Trp-O—Me)—O—Me, reference compound]",Bioconversion to Apo805 in human hepatocytes,human hepatocytes,30% in 3 h
same,Log D7.4,"[2]; pH 7.4, 1-octanol/MOPS buffer",0.57
"COC(=O)[C@@H](Cc1c[nH]c2ccccc12)NC(=O)CC[C@@H](N)C(=O)OCc1ccccc1 [Apo804, H-D-Glu(D-Trp-OMe)-O—CH2Ph]",Bioconversion to Apo805 in human hepatocytes,human hepatocytes,30%
same,Apo805 formed in human cryopreserved hepatocyte,human hepatocytes; over a period of 4 hours,31%
same,log D7.4 compared with Apo805,[2]; more lipophilic than Apo805,higher
"N[C@H](CCC(=O)N[C@H](Cc1c[nH]c2ccccc12)C(=O)O)C(=O)O [Apo805, D-gamma-glutamyl-D-tryptophan]",Log D7.4,"[2]; pH 7.4, 1-octanol/MOPS buffer",−3.22
"COC(=O)[C@@H](Cc1c[nH]c2ccccc12)NC(=O)CC[C@@H](N)C(=O)O [H-D-Glu(D-Trp-OMe)-OH, reference compound]",Log D7.4,"[2]; pH 7.4, 1-octanol/MOPS buffer",−0.89
"CC(C)CCOC(=O)[C@H](N)CCC(=O)N[C@H](Cc1c[nH]c2ccccc12)C(=O)OCCC(C)C.Cl [Apo848, 3-methylbutyl (2R)-2-amino-5-{[(2R)-3-(1H-indol-3-yl)-1-(3-methylbutoxy)-1-oxopropan-2-yl]amino}-5-oxopentanoate hydrochloride]",conversion to Apo805 in rat blood,[3],instantaneously converted
same,"Papp at 120 min, 50 μM",[4],2.87 ×10⁻⁶ cm/s
same,Absolute oral bioavailability (AUC oral / AUC intravenous Apo805K1; Apo805 measured in plasma),"[1]; male, Sprague-Dawley, rat, in vivo, 5 mg/kg",48%
same,oral bioavailability compared with Apo805,"[1]; rat, in vivo, po",enhanced
same,oral exposure compared with H-D-Glu(D-Trp-OH)—OH,"[1]; rat, in vivo, po",improved
same,improvement of the log D value of H-D-Glu(D-Trp-OH)—OH,[2]; diisoamyl ester versus parent drug,more than 10^5 fold
same,Log D7.4,"[2]; pH 7.4, 1-octanol/MOPS buffer",2.1
same,distribution coefficient D7.4,"[2]; pH 7.4, 1-octanol/MOPS buffer",127
same,logD,"[2]; pH 7.4, 1-octanol/MOPS buffer, read-out: Log D7.4",2.1
